# What was measured:
# FGF receptors = conditions: Yeh et al; cited from earlier work
# IL-1α synthesis = experiment: PHA stimulated human whole blood cytokine synthesis: IL-1α; type: cell-based; conditions: 0.01 μM, days 1-4
# Procedure: (§1) Blood was taken from a healthy young volunteer, into heparin Vacutainers®. Whole-blood was diluted to give a final concentration of 1/10 in culture medium (CM). CM consisted of RPMI 1640 with L-glutamine, penicillin and streptomycin. PHA (phytohaemagglutinin) solution and N-acetyl-β,β-diglucosylamine octasulphate (DOS) and PHA solution were added to non-control samples. Final drug concentrations tested were 100 μM, 1 μM, 0.1 μM and 0.01 μM. All samples were tested in triplicate.
# (§2) Reagents were placed in four sets of 24-well (6×4) flat-bottomed plates (Corning US) and incubated for 1, 2, 3 and 4 days respectively (incubator conditions: 37° C., humid and 5% CO2). […]
# (§3) The protocol of Lagrelius et al. was followed (Cytokine, 2006, 33, pp. 156-165). The culture supernatants were analysed once for concentrations of IL-1α, IL-1β, IL-2, IL-4, IL-5, IL-6, IL-7, IL-10, IL-12, IL-13, IL-17, IFNγ, GCSF, GM-CSF, MCP-1, RANTES, VEGF and TNFα. The cytokines were measured simultaneously using a Bio-Plex assay. […] A monoclonal antibody specific for each cytokine of interest is coupled onto a particular set of beads with a known internal fluorescence, and several combinations of cytokine antibody coated beads can be included and thus multiple cytokines are measured simultaneously. […] A minimum of 100 beads per region were analysed. […]
# IL-1β synthesis = experiment: PHA stimulated human whole blood cytokine synthesis: IL-1β; type: cell-based; conditions: 0.01 μM, days 1-4
# Procedure: as §1, §2, §3
# IL-2 synthesis = experiment: PHA stimulated human whole blood cytokine synthesis: IL-2; type: cell-based; conditions: 0.01 μM, days 1-4
# Procedure: as §1, §2, §3
# IL-4 synthesis = experiment: PHA stimulated human whole blood cytokine synthesis: IL-4; type: cell-based; conditions: 0.01 μM, days 1-4
# Procedure: as §1, §2, §3
# IL-5 synthesis = experiment: PHA stimulated human whole blood cytokine synthesis: IL-5; type: cell-based; conditions: 0.01 μM, days 1-4
# Procedure: as §1, §2, §3
# IL-6 synthesis = experiment: PHA stimulated human whole blood cytokine synthesis: IL-6; type: cell-based; conditions: 0.01 μM, days 1-4
# Procedure: as §1, §2, §3
# IL-10 synthesis = experiment: PHA stimulated human whole blood cytokine synthesis: IL-10; type: cell-based; conditions: 0.01 μM, days 1-4
# Procedure: as §1, §2, §3
# IL-13 synthesis = experiment: PHA stimulated human whole blood cytokine synthesis: IL-13; type: cell-based; conditions: 0.01 μM, days 1-4
# Procedure: as §1, §2, §3
# IL-17 synthesis = experiment: PHA stimulated human whole blood cytokine synthesis: IL-17; type: cell-based; conditions: 0.01 μM, days 1-4
# Procedure: as §1, §2, §3
# IFNγ synthesis = experiment: PHA stimulated human whole blood cytokine synthesis: IFNγ; type: cell-based; conditions: 0.01 μM, days 1-4
# Procedure: as §1, §2, §3
# GCSF synthesis = experiment: PHA stimulated human whole blood cytokine synthesis: GCSF; type: cell-based; conditions: 0.01 μM, days 1-4
# Procedure: as §1, §2, §3
# GM-CSF synthesis = experiment: PHA stimulated human whole blood cytokine synthesis: GM-CSF; type: cell-based; conditions: 0.01 μM, days 1-4
# Procedure: as §1, §2, §3
# TNFα synthesis [1] = experiment: PHA stimulated human whole blood cytokine synthesis: TNFα; type: cell-based; conditions: 0.01 μM, days 1-4, Bio-Plex
# Procedure: as §1, §2, §3
# IL-7 synthesis = experiment: PHA stimulated human whole blood cytokine synthesis: IL-7; type: cell-based; conditions: 0.01 μM, days 1-4
# Procedure: as §1, §2, §3
# VEGF synthesis = experiment: PHA treated human whole blood cytokine synthesis: VEGF; type: cell-based; conditions: 0.01 μM; human whole blood in which VEGF synthesis has been inhibited by PHA; days 1-4
# Procedure: as §1, §2, §3
# TNFα synthesis [2] = experiment: TNFα synthesis in whole blood stimulated with 5 μg/ml PHA; type: cell-based; conditions: human whole blood 1:10, 5 μg/ml PHA for 4 days; 0.01, 0.1 or 1 μM; ELISA days 1-4
# Procedure: Human whole blood was diluted 1:10 in RPMI and stimulated with 5 μg/ml phytohaemagglutinin (PHA) for 4 days in the absence or presence of N-acetyl-β,β-diglucosylamine octasulphate (DOS) or N-acetyl-β,β-diglucosylamine oligosulphate 1200 at concentrations of 0.01, 0.1 or 1 μM. The TNFα concentrations were assayed by ELISA on days 1, 2, 3 and 4.
# TNFα synthesis [3] = experiment: LPS stimulated U937 macrophage TNFα synthesis; type: cell-based, human; conditions: PMA differentiated U937; 80 nM lps 72 hours; 0.10, 1.00, 10.00 and 100.00 μM
# Procedure: U937 human monocytes were incubated with 5 μg/ml PMA (phorbol myristate acetate) for 5 days in order to induce differentiation. N-acetyl-β,β-diglucosylamine octasulphate (DOS) was added to the macrophages produced at concentrations of 0 (control), 0.10, 1.00, 10.00 and 100.00 μM.
# [4] = Cahalon et al; cited from earlier work
# β-glucosidases = conditions: Kolarova et al; cited from earlier work
# articular inflammation = conditions: cited from earlier work
# [5] = tested on: antigen stimulated mice spleen cells; conditions: in vitro; cited from earlier work
# interleukin-2 synthesis = conditions: antigen stimulated mice spleen cells in vitro; cited from earlier work
# interleukin-10 synthesis = conditions: antigen stimulated mice spleen cells in vitro; cited from earlier work
# IFN synthesis = conditions: antigen stimulated mice spleen cells in vitro; cited from earlier work
# feline herpes infection = conditions: reactivation of feline herpes infection; Roberts et al; cited from earlier work
# [6] = acid conditions of the stomach; cited from earlier work
# [7] = tested on: C-type lectin-like domain of a recombinant natural killer cell receptor; conditions: Kogelberg et al; cited from earlier work
# hepatocyte growth factor = hepatocyte growth factor (Homo sapiens, UniProt P14210); conditions: Zhou et al; cited from earlier work
# Chain of hepatocyte growth factor (P14210 31-127 limits assumed, species assumed): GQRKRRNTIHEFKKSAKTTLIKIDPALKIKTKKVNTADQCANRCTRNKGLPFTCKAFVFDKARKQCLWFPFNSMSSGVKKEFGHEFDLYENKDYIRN
# follistatin = follistatin (Rattus norvegicus, UniProt P21674); conditions: Innis et al; cited from earlier work
# Chain of follistatin (P21674 93-165 limits assumed): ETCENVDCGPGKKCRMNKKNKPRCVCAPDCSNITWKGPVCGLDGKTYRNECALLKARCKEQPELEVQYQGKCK
# [8] = target: pro-inflammatory chemokine MCP-1 (Homo sapiens, UniProt P13500); conditions: Yonghao et al; cited from earlier work
# Chain of pro-inflammatory chemokine MCP-1 (P13500 24-99): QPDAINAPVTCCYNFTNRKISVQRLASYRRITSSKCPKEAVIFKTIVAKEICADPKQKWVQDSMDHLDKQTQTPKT
# inflamed joints = conditions: Ronca et al; cited from earlier work
compound,measurement,setting,value
2-hydroxysucrose heptasulphate,FGF dependent dimerisation of FGF receptors,FGF receptors,much lesser extent
"4,6-dihydroxysucrose hexasulphate",FGF dependent dimerisation of FGF receptors,FGF receptors,not at all
"CC(=O)N([C@@H]1O[C@H](COS(=O)(=O)O)[C@@H](OS(=O)(=O)O)[C@H](OS(=O)(=O)O)[C@H]1OS(=O)(=O)O)[C@@H]1O[C@H](COS(=O)(=O)O)[C@@H](OS(=O)(=O)O)[C@H](OS(=O)(=O)O)[C@H]1OS(=O)(=O)O [N-acetyl-β,β-diglucosylamine octasulphate]",PHA stimulated synthesis of IL-1α,IL-1α synthesis,inhibits
same,PHA stimulated synthesis of IL-1β,IL-1β synthesis,inhibits
same,PHA stimulated synthesis of IL-2,IL-2 synthesis,inhibits
same,PHA stimulated synthesis of IL-4,IL-4 synthesis,inhibits
same,PHA stimulated synthesis of IL-5,IL-5 synthesis,inhibits
same,PHA stimulated synthesis of IL-6,IL-6 synthesis,inhibits
same,PHA stimulated synthesis of IL-10,IL-10 synthesis,inhibits
same,PHA stimulated synthesis of IL-13,IL-13 synthesis,inhibits
same,PHA stimulated synthesis of IL-17,IL-17 synthesis,inhibits
same,PHA stimulated synthesis of IFNγ,IFNγ synthesis,inhibits
same,PHA stimulated synthesis of GCSF,GCSF synthesis,inhibits
same,PHA stimulated synthesis of GM-CSF,GM-CSF synthesis,inhibits
same,PHA stimulated synthesis of TNFα,TNFα synthesis [1],inhibits
same,level of IL-7,IL-7 synthesis,increased
same,level of VEGF,VEGF synthesis,increased
same,inhibition of TNFα synthesis,TNFα synthesis [2],effectively inhibit TNFα synthesis
same,inhibition of TNFα synthesis,TNFα synthesis [3],inhibited TNFα synthesis at all concentrations down to 0.1 μM
"CC(=O)N[C@H]1C(O)O[C@H](CO)[C@@H](O[C@@H]2OC(C(=O)O)=C[C@H](O)[C@H]2O)[C@@H]1O (stereo partly drawn) [desulphated heparin disaccharide, O-(α-L-ido-4-enepyranosyluronic acid)-(1→4)-2-deoxy-N-acetyl-D-glucoseamine]",effectiveness as an anti-inflammatory agent,[4],ineffective
OC[C@H]1O[C@@H](N[C@@H]2O[C@H](CO)[C@@H](O)[C@H](O)[C@H]2O)[C@H](O)[C@@H](O)[C@@H]1O [di-β-D-glucosylamine],inhibition of β-glucosidases,β-glucosidases,inhibit β-glucosidases
same,articular inflammation,"articular inflammation; mice, parenteral routes, Bolton et al",inhibits articular inflammation
same,activity by the oral route,articular inflammation; oral route,inactive
same,antigen induced immune cell proliferation,[5],inhibits
same,interleukin-2 synthesis,interleukin-2 synthesis,inhibits
same,interleukin-10 synthesis,interleukin-10 synthesis,inhibits
same,IFN synthesis,IFN synthesis,inhibits
same,development of ocular inflammation,feline herpes infection,prevents the development of ocular inflammation
same,hydrolysis of the glycosylamine group,[6],readily hydrolysed
O=S(=O)(O)OC[C@H]1O[C@@](COS(=O)(=O)O)(O[C@H]2O[C@H](COS(=O)(=O)O)[C@@H](OS(=O)(=O)O)[C@H](OS(=O)(=O)O)[C@H]2OS(=O)(=O)O)[C@@H](OS(=O)(=O)O)[C@@H]1OS(=O)(=O)O [sucrose octasulphate],FGF dependent dimerisation of FGF receptors,FGF receptors,induced FGF dependent dimerisation of FGF receptors
same,binding to natural killer cell receptor C-type lectin-like domain,[7],bind
same,binding to hepatocyte growth factor,hepatocyte growth factor,bind
same,binding to follistatin,follistatin,bind
same,binding to MCP-1,[8],bind
chondroitin sulphate,inflammatory cell accumulation and inflammation,inflamed joints,reduces inflammatory cell accumulation and inflammation

# From patent publication US9045523B2, “Compounds” (PHAROS PHARMACEUTICALS INC., priority 2006, dated 2015)
